The source of these data is publication PMC10167746, “Crystal structure of MbnF: an NADPH-dependent flavin monooxygenase from Methylocystis strain SB2” (Acta Crystallographica. Section F, Structural Biology …, 2023).

The target in one test is T1, MbnF (MbnF-His) (Methylocystis sp. SB2, UniProt A0ACD6BAX2).
T1 construct: gene CTY30_04200; full-length, C-terminal His6 tag kept (pET-41a, E. coli BL21(DE3)); monomer in solution (SEC), dimer in crystal
Kind of test: X-ray crystal structure, […] A. Type of test: binding. The following applies: co-purified from E. coli, no FAD added; noncovalent; 'in' conformation, all three monomers of the asymmetric unit; crystals pH 6.5, 200 mM NaBr.

For test [1], the target named is T2, MbnF from Methylocystis sp. strain SB2, C-terminally His6-tagged (Methylocystis sp. strain SB2).
T2 construct: MbnF, Methylocystis sp. strain SB2; Computed mass 59.17 kDa as printed; also called MbnF-His; FAD-dependent oxidoreductase; source: E. coli BL21(DE3), pET-41, purified (HisTrap, Mono Q); not shown: His6, C-terminal, kept
T2 chain: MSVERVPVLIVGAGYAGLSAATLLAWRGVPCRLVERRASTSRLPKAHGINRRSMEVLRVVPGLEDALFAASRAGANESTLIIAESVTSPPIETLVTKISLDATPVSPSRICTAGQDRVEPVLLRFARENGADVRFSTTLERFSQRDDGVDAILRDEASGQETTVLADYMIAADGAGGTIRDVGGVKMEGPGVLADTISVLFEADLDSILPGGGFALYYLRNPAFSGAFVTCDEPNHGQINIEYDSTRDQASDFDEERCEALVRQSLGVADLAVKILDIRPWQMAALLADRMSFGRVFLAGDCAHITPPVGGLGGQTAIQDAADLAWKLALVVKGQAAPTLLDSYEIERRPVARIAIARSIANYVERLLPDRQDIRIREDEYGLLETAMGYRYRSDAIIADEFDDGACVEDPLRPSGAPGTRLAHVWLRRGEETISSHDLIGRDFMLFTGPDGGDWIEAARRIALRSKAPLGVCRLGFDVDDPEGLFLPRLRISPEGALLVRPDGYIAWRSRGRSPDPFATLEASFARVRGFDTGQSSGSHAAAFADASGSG
Put plainly: native MS; ESI-MS after a SEC column (ACQUITY UPLC Protein BEH SEC) under neutral pH, isocratic 50 mM ammonium acetate pH 6.6; mixture of 1 mg/ml MbnA, 500 µM MbnF, 250 mM NaCl, 50 mM HEPES pH 7.4. The following applies: both partners purified. In general terms: In gel filtration, larger molecules generally elute earlier.

Take `Cc1cc2nc3c(=O)[nH]c(=O)nc-3n(C[C@H](O)[C@H](O)[C@H](O)COP(=O)(O)OP(=O)(O)OC[C@H]3O[C@@H](n4cnc5c(N)ncnc54)[C@H](O)[C@@H]3O)c2cc1C` [FAD]: on MbnF (MbnF-His), the “X-ray crystal structure, 2.61 A” value is on record as “All three monomers of the asymmetric unit bound FAD in the same general conformation”.

B1: MbnA peptide (methanobactin MB-SB2 precursor peptide) (peptide)
peptide: IRIAKRITLNVIGRASARCASTCAATNG
notes: MbnA, precursor peptide of methanobactin MB-SB2, Methylocystis sp. strain SB2; the natural precursor may have further residues at its N-terminus; also called MB-SB2 peptide precursor; source: synthetic peptide, bought: AnaSpec (~90% pure)
B1: in test [1], the binding result was “binds”.
